Assay [1] relates to gastric mucous membrane. The assay can be described thus: 100% ethanol-induced gastric mucous membrane damage in rats (Experimental Example 1). The format is in vivo, male rats of the Wister line. How it is done:
After 1 hour from the administration of 100% ethanol, the abdominal operation was carried out, and the length of the damaged region on the gastric mucous membrane was measured as the mucous membrane damage coefficient and compared with the value obtained in the control group. Note, a 0.5% solution of CMC not containing a compound of formula I was intraabdominally or orally administered in the control group.

The test system of assay [2] is gastric mucous membrane. In words: 0.6N hydrochloric acid-induced gastric mucous membrane damage in rats (Experimental Example 2). Particulars: Table 7, 100 mg/kg i.p. The format is in vivo, male rats of the Wister line. How it is done:
A suspension of a compound of formula I in a […] of CMC (carboxymethyl cellulose) was intraabdominally administered in male rats of the Wister line (each group consisting of 10 rats) having a body weight of 180 to 200 g, which had been made to fast for 24 hours, and after 30 minutes, 1 ml of 0.6N hydrochloric acid was orally administered. After 1 hour from the administration of 0.6N hydrochloric acid, the abdominal operation was carried out, and the length of the damage on the gastric mucous membrane was measured as the mucous membrane damage coefficient and compared with the value obtained in the control group in the control group. Note, a 0.5% solution of CMC was intraabdominally administered. Data of the inhibition ratio calculated according to the following formula is shown in Tables 5 through 7: [formula] wherein A stands for the value obtained in the control group and B stands for the value obtained in the group in which the compound of formula I had been administered.

SMILES strings stand for the structures.

In the case of `COc1ccc(CCC(=O)c2c(OC)cc(OC)c(CCC(C)C)c2OCC(=O)O)cc1` [Specific Example 35, 1-(2-carboxymethoxy-4,6-dimethoxy-3-isopentylphenyl)-3-(4-methoxyphenyl)-1-propanone], in the assay on gastric mucous membrane [1] (Rattus norvegicus, ip, 1 h, Table 1, 35 mg/kg i.p., vs control, read-out: Inhibition Ratio), the inhibition in vivo at 35 mg/kg is 67.2%. Moreover, the inhibition in vivo at 100 mg/kg in the assay with gastric mucous membrane [1] (Rattus norvegicus, po, 1 h, Table 2, 100 mg/kg p.o., vs control, read-out: Inhibition Ratio) worked out at 81.2%. In addition, the “Mucous Membrane Damage Coefficient” value in the assay with gastric mucous membrane [1] (Table 1, 35 mg/kg i.p., control 102.6) amounted to 33.7 mm; with gastric mucous membrane [1] (Table 2, 100 mg/kg p.o., control 87.7), 16.5 mm; in the assay with gastric mucous membrane [2] (control 133.8) it was 65.8 mm. In the assay with gastric mucous membrane [2] (vs control), the “Inhibition Ratio” value is recorded as 50.8%.

(Values after patent US5106871A, “Anti-ulcer agent comprising chalcone derivative as effective ingredient and novel chalcone derivative” (Tsumura & Co., priority 1986, dated 1992).)
